In patent US5424441A, “N-aralkyl-and N-heteroaralkyl-aminoalkanephosphinic acids” (Ciba-Geigy Corporation, priority 1994, dated 1995):

System: "epileptic-like" discharges from pyramidal cells
Assay: penicillin-induced "epileptic" hippocampus section preparation, electrophysiological model in vitro
Format: cell-based
Conditions: read-out: concentration at which "epileptic-like" discharges from pyramidal cells are inhibited

For NCC(CC(=O)O)c1ccc(Cl)cc1 (stereo not shown) [baclofen], which minimal effective concentration is on record?
Its minimal effective concentration is 6 µM.
